Measurements: publication PMC8550792, “Evolution of kinase polypharmacology across HSP90 drug discovery” (Cell Chemical Biology, 2021)

Columns and labels:
Assay in all cases: biochemical
Format in all cases: biochemical
382 unique human kinases [1] = biological target: T1, 382 unique human kinases (Homo sapiens, UniProt P22455); conditions: FGFR4, 10 uM; for remaining activity at 10 µM: read-out: % Enzyme Activity (relative to DMSO controls)
T1 construct: purchased Reaction Biology (HotSpot contract assay)
T1 sequence (P22455 22-802): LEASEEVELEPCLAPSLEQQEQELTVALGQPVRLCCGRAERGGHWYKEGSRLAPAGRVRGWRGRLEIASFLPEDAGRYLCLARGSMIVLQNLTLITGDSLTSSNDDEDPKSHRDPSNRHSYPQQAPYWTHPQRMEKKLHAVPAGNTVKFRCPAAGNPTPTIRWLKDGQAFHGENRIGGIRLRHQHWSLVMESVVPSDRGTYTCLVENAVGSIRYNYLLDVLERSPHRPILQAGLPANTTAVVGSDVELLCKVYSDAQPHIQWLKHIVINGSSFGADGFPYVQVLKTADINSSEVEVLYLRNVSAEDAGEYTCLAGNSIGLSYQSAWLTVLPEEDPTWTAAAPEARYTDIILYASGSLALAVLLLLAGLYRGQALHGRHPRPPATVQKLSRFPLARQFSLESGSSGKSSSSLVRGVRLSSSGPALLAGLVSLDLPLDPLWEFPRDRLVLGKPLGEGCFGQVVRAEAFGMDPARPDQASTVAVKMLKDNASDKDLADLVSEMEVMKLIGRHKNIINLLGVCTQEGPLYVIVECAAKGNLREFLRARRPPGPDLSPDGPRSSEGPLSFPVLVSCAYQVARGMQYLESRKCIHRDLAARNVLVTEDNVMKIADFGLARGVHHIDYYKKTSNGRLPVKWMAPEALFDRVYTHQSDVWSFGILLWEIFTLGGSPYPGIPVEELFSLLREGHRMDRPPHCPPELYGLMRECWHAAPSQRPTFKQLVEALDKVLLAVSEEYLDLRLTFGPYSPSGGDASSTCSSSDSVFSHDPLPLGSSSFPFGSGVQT

382 unique human kinases [2] = biological target: T2, 382 unique human kinases (Homo sapiens, UniProt P22455, V550L); conditions: FGFR4 (V550L), 10 uM; for remaining activity at 10 µM: read-out: % Enzyme Activity (relative to DMSO controls)
T2 construct: purchased Reaction Biology (HotSpot contract assay)
T2 sequence (P22455 22-802 V550L): as the sequence (P22455 22-802) above, with V529L counted along it

382 unique human kinases [3] = biological target: T3, 382 unique human kinases (Homo sapiens, UniProt P00533, L747S); conditions: kinase EGFR (L747S), compound 10 uM; for remaining activity at 10 µM: read-out: % Enzyme Activity (relative to DMSO controls)
T3 construct: purchased Reaction Biology (HotSpot contract assay)

382 unique human kinases [4] = biological target: T4, 382 unique human kinases (Homo sapiens, UniProt P21802, K526E); conditions: for remaining activity at 10 µM: read-out: % Enzyme Activity (relative to DMSO controls)
T4 construct: purchased Reaction Biology (HotSpot contract assay)

382 unique human kinases [5] = biological target: T5, 382 unique human kinases (Homo sapiens, UniProt Q02763, Y897C); conditions: kinase TIE2 (Y897C), compound 10 uM; for remaining activity at 10 µM: read-out: % Enzyme Activity (relative to DMSO controls)
T5 construct: purchased Reaction Biology (HotSpot contract assay)
T5 sequence (Q02763 23-1124 Y897C): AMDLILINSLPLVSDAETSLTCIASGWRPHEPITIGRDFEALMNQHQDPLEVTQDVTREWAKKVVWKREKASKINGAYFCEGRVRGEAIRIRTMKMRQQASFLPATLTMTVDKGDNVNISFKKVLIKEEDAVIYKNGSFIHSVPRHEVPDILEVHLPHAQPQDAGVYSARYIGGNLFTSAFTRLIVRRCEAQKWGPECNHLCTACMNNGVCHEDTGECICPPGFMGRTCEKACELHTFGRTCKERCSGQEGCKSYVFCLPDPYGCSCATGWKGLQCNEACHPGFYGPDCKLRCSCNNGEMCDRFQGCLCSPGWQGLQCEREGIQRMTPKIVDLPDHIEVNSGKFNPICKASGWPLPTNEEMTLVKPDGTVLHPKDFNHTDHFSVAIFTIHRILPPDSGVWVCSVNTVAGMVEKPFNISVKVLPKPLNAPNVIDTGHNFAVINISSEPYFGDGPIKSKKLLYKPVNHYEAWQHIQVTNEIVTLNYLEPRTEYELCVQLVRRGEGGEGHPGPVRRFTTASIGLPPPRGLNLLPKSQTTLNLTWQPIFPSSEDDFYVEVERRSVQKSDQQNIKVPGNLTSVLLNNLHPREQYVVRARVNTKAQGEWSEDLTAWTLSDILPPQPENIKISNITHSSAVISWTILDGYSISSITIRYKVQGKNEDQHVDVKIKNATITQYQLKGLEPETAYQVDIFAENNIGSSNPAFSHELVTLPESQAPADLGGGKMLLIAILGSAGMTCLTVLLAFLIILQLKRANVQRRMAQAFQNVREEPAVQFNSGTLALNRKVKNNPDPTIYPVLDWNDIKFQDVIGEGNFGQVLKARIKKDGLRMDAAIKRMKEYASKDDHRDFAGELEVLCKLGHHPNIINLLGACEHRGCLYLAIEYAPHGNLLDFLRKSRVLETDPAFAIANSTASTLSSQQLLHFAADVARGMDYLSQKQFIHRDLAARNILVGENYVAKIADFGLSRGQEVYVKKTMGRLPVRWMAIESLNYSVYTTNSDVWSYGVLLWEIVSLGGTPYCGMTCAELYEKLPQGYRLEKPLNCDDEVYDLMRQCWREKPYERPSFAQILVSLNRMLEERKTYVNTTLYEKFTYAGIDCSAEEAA

382 unique human kinases [6] = biological target: T6, 382 unique human kinases (Homo sapiens, UniProt P06213); conditions: kinase IR, compound 10 uM; for remaining activity at 10 µM: read-out: % Enzyme Activity (relative to DMSO controls)
T6 construct: purchased Reaction Biology (HotSpot contract assay)
T6 sequence (P06213 28-1382): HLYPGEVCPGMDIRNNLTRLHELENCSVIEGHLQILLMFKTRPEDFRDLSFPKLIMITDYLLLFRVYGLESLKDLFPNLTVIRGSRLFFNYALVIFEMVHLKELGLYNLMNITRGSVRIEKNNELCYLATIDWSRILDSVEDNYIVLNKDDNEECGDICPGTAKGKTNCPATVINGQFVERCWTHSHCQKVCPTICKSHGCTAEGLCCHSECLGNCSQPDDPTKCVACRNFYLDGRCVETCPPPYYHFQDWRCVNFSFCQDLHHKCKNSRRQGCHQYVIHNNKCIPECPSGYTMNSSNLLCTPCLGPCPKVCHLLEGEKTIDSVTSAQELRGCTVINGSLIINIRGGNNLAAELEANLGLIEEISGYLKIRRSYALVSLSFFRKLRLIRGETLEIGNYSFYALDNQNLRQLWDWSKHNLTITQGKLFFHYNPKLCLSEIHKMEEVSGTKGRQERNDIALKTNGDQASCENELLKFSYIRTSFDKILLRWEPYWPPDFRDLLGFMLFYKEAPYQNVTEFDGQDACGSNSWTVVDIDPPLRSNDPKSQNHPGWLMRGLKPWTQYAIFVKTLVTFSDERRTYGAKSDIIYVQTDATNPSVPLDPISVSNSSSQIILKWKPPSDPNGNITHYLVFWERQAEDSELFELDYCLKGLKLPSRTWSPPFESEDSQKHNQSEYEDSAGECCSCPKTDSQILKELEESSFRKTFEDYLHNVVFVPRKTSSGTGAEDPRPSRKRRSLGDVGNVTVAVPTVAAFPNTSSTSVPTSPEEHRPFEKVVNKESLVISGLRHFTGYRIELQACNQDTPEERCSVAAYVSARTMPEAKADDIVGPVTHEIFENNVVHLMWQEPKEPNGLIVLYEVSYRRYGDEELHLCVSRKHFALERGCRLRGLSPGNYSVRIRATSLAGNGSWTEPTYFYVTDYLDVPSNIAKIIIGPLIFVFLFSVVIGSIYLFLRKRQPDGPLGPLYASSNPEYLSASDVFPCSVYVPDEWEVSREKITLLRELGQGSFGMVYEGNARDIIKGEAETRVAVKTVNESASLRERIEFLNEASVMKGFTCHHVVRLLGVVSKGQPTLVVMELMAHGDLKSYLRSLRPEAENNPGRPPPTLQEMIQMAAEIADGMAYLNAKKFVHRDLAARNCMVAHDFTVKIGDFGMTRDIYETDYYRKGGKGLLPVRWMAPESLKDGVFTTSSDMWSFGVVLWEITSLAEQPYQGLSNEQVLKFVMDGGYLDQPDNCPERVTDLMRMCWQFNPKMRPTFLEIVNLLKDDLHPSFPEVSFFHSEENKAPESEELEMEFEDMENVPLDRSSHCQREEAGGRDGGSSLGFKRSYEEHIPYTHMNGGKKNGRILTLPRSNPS

382 unique human kinases [7] = biological target: T7, 382 unique human kinases (Homo sapiens, UniProt Q15418); conditions: RSK1, [ATP] 20 µM, compound 10 uM; for remaining activity at 10 µM: read-out: % Enzyme Activity (relative to DMSO controls)
T7 construct: purchased Reaction Biology (HotSpot contract assay)
T7 sequence (Q15418 whole entry): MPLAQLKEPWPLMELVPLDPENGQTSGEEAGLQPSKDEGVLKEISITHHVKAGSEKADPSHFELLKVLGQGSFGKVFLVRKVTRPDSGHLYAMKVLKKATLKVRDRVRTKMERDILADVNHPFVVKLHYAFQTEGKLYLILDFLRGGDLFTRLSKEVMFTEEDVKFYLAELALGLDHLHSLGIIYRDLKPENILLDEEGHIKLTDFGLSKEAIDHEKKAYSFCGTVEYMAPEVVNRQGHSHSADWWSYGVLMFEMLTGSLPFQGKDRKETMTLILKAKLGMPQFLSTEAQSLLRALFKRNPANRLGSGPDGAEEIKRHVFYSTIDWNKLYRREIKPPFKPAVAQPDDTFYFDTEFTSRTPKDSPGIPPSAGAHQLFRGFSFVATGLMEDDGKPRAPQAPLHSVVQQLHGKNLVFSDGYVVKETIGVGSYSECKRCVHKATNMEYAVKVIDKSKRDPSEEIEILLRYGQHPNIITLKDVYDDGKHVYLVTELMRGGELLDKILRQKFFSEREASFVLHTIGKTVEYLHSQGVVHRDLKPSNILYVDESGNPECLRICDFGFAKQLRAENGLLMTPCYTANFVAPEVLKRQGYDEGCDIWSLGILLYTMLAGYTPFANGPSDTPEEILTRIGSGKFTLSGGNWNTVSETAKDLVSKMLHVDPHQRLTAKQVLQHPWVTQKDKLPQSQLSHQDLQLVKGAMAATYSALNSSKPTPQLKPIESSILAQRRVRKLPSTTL

382 unique human kinases [8] = biological target: T8, 382 unique human kinases (Homo sapiens, UniProt O14965); conditions: Aurora A, [ATP] 2.5 µM, compound 10 uM; for remaining activity at 10 µM: read-out: % Enzyme Activity (relative to DMSO controls)
T8 construct: purchased Reaction Biology (HotSpot contract assay)
T8 sequence (O14965 1-403): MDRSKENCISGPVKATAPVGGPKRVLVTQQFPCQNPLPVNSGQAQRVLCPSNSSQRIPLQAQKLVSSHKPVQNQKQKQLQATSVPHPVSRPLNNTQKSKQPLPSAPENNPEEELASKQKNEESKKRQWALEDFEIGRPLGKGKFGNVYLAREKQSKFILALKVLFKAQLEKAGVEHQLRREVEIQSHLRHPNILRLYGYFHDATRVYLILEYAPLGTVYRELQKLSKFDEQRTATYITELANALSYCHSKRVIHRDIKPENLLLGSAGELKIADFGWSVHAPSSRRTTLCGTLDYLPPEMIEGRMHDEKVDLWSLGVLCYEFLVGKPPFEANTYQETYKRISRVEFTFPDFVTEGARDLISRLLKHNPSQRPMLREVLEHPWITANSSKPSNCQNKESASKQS

382 unique human kinases [9] = biological target: T9, 382 unique human kinases (Homo sapiens, UniProt Q9UQB9); conditions: Aurora C, 10 uM; for remaining activity at 10 µM: read-out: % Enzyme Activity (relative to DMSO controls)
T9 construct: purchased Reaction Biology (HotSpot contract assay)
T9 sequence (Q9UQB9 1-309): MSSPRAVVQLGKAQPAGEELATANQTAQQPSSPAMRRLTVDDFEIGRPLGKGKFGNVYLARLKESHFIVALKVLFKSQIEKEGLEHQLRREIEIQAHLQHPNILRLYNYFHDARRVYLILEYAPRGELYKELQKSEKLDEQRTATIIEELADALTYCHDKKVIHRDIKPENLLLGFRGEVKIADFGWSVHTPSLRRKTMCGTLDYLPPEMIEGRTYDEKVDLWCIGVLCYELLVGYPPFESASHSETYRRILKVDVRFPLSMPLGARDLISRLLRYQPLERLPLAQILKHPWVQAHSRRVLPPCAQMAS

382 unique human kinases [10] = biological target: T10, 382 unique human kinases (Homo sapiens, UniProt O60285); conditions: ARK5/NUAK1, 10 uM; for remaining activity at 10 µM: read-out: % Enzyme Activity (relative to DMSO controls)
T10 construct: purchased Reaction Biology (HotSpot contract assay)
T10 sequence (O60285 1-661): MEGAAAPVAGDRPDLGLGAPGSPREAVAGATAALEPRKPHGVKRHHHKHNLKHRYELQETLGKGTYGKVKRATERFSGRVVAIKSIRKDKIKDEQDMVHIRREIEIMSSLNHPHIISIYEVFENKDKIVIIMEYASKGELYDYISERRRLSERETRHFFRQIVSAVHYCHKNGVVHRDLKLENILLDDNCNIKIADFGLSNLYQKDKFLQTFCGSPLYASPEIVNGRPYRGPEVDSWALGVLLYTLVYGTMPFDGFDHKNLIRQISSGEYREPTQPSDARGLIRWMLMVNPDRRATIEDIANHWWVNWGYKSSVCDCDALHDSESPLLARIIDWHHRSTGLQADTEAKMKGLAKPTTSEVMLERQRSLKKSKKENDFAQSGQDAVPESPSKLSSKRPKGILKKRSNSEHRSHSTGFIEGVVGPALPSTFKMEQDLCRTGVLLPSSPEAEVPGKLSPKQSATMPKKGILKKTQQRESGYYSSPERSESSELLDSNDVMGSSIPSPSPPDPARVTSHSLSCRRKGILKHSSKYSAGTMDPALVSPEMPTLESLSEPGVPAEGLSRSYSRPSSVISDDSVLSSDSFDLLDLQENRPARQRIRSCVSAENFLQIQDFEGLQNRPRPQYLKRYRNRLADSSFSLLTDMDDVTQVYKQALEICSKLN

382 unique human kinases [11] = biological target: T11, 382 unique human kinases (Homo sapiens, UniProt P11309); conditions: PIM1, [ATP] 100 µM, compound 10 uM; for remaining activity at 10 µM: read-out: % Enzyme Activity (relative to DMSO controls)
T11 construct: purchased Reaction Biology (HotSpot contract assay)
T11 sequence (P11309 whole entry): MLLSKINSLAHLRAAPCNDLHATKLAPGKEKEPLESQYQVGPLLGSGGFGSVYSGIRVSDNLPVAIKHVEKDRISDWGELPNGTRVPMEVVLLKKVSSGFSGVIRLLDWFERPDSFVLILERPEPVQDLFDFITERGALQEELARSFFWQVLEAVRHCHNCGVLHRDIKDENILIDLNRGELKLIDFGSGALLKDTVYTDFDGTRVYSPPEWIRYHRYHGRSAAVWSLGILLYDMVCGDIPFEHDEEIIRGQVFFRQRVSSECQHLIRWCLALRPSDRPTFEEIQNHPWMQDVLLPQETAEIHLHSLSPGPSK

| SMILES | remaining activity at 10 µM (382 unique human kinases [1]) | remaining activity at 10 µM (382 unique human kinases [2]) | remaining activity at 10 µM (382 unique human kinases [3]) | remaining activity at 10 µM (382 unique human kinases [4]) | remaining activity at 10 µM (382 unique human kinases [5]) | remaining activity at 10 µM (382 unique human kinases [6]) | remaining activity at 10 µM (382 unique human kinases [7]) | remaining activity at 10 µM (382 unique human kinases [8]) | remaining activity at 10 µM (382 unique human kinases [9]) | remaining activity at 10 µM (382 unique human kinases [10]) | remaining activity at 10 µM (382 unique human kinases [11]) | other results |
| --- | --- | --- | --- | --- | --- | --- | --- | --- | --- | --- | --- | --- |
| CC(C)c1cc(-c2n[nH]c(=O)n2-c2ccc3c(ccn3C)c2)c(O)cc1O [Ganetespib (STA9090)] | 71.5% | 76.1% | 88% | 68.8% | 88% | 87% |  |  |  |  |  |  |
| CC(C)c1cc(-c2n[nH]c(=O)n2-c2ccc3c(ccn3C)c2)c(O)cc1O [Ganetespib] |  |  |  |  |  |  | 54.1% | 35% | 92.9% | 97.3% | 15.9% |  |
| CCNC(=O)c1noc(-c2cc(C(C)C)c(O)cc2O)c1-c1ccc(CN2CCOCC2)cc1 [Luminespib (AUY-922)] | 97.1% | 101% | 108% | 102% | 100% | 96.8% |  |  |  |  |  | % Enzyme Activity (relative to DMSO controls) (382 unique human kinases [1]): 96.06%; % Enzyme Activity (relative to DMSO controls) (382 unique human kinases [2]): 101.11%; % Enzyme Activity (relative to DMSO controls) (382 unique human kinases [3]): 107.24%; % Enzyme Activity (relative to DMSO controls) (382 unique human kinases [4]): 99.92%; % Enzyme Activity (relative to DMSO controls) (382 unique human kinases [5]): 99.30%; % Enzyme Activity (relative to DMSO controls) (382 unique human kinases [6]): 96.77% |
| CCNC(=O)c1noc(-c2cc(C(C)C)c(O)cc2O)c1-c1ccc(CN2CCOCC2)cc1 [Luminespib] |  |  |  |  |  |  | 103% | 90.7% | 96% | 93.9% | 97.2% | % Enzyme Activity (relative to DMSO controls) (382 unique human kinases [7]): 100.81%; % Enzyme Activity (relative to DMSO controls) (382 unique human kinases [8]): 89.97%; % Enzyme Activity (relative to DMSO controls) (382 unique human kinases [9]): 94.32%; % Enzyme Activity (relative to DMSO controls) (382 unique human kinases [10]): 92.57%; % Enzyme Activity (relative to DMSO controls) (382 unique human kinases [11]): 94.76% |
